According to ChEMBL document CHEMBL1201862, “PubChem BioAssay data set” (2004):
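Assay format: 96-well plates, 48-hour exposure. Abbreviation: GI50, concentration required for 50% inhibition of growth.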 Active and inactive are the calls of the source. Cut-off read from the data, not from the text of the source: active = GI50 up to about 1.1 µM and inactive = higher.

Columns and labels:
Assay in all cases: NCI anticancer screen, dose series, 48 h
CAKI-1 = tested on: CAKI-1
MDA-MB-435 = tested on: MDA-MB-435
OVCAR-5 = tested on: OVCAR-5
SNB-19 = tested on: SNB-19
SK-MEL-5 = tested on: SK-MEL-5
TK-10 = tested on: TK-10
MDA-N = tested on: MDA-N
HCT-15 = tested on: HCT-15
PC-3 = tested on: PC-3
HOP-62 = tested on: HOP-62
MCF7 = tested on: MCF7
T47D = tested on: T47D
SW-620 = tested on: SW-620
HT-29 = tested on: HT-29
SR = tested on: SR
A498 = tested on: A498
SK-MEL-28 = tested on: SK-MEL-28
SF-539 = tested on: SF-539
U-251 = tested on: U-251
SF-268 = tested on: SF-268

Measured: GI50

OC[C@H]1O[C@@H](n2cnc3c(S)ncnc32)[C@H](O)[C@@H]1O [THIOINOSINE]
> 2500 µM: HCT-15
inactive: CAKI-1 > 2500 µM | MDA-MB-435 2330 µM | OVCAR-5 > 2500 µM | SNB-19 > 1580 µM | SK-MEL-5 > 2500 µM | TK-10 > 2500 µM | MDA-N > 2310 µM | PC-3 > 2500 µM | HOP-62 2120 µM | MCF7 2290 µM | T47D 1830 µM | SW-620 > 2500 µM | HT-29 2260 µM | SR 1890 µM | A498 > 2200 µM | SK-MEL-28 > 2500 µM | SF-539 > 2500 µM | U-251 > 2450 µM | SF-268 > 2500 µM
